Measurements reported in ChEMBL document CHEMBL5046242, “Investigation of Janus Kinase (JAK) Inhibitors for Lung Delivery and the Importance of Aldehyde Oxidase Metabolism” (J Med Chem, 2022).
≈ marks a conversion by molar mass, not a printed value.

Experiments:
[1] = molecular target: Tyrosine-protein kinase JAK1 (Homo sapiens, UniProt P23458); type: cell-based
physchem [2] = conditions: buffer, pH 7.4
Aurora kinase B = Aurora kinase B (Homo sapiens, UniProt Q96GD4)
in vitro = conditions: PAMPA, pH 7.4
Description: Permeability of the compound at pH 7.4 incubated for 3 hrs by HPLC based artificial membrane permeability assay

[3] = molecular target: Non-receptor tyrosine-protein kinase TYK2 (Homo sapiens, UniProt P29597); type: cell-based
Sequence of Non-receptor tyrosine-protein kinase TYK2 (P29597 whole entry): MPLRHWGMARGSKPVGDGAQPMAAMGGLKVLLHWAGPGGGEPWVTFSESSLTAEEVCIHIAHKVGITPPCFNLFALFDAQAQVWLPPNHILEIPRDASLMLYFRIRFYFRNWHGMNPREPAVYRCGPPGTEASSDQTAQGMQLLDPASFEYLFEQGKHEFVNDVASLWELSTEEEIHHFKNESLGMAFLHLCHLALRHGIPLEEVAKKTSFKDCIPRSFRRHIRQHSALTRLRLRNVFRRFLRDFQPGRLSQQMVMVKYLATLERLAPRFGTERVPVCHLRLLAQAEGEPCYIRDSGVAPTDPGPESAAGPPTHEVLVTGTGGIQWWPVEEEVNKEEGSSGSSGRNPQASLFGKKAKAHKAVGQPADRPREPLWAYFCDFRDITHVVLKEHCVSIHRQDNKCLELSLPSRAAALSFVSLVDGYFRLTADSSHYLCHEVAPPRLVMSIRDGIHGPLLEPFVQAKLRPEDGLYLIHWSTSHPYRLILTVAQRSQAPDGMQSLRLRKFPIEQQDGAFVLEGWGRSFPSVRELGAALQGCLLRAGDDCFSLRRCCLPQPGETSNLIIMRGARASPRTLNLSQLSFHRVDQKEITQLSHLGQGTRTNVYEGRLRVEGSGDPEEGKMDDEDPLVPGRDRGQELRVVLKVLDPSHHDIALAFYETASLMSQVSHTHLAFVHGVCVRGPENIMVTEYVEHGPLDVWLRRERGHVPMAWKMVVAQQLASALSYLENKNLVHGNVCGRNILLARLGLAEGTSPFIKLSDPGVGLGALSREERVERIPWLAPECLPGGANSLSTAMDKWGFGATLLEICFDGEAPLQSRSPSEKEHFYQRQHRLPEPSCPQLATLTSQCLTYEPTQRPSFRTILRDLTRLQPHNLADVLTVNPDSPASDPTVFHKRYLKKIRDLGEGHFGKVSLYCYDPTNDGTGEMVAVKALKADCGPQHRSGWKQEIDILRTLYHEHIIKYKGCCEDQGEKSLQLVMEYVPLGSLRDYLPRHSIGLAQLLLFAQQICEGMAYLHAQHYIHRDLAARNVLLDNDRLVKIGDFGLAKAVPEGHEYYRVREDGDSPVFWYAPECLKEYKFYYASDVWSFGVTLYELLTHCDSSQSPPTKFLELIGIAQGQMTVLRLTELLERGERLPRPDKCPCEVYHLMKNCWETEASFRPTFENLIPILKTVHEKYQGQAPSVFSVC

physchem [4] = conditions: buffer, pH 6.5
Description: Solubility of the compound in stimulated lung fluid at pH 6.5 measured after 4 hrs by HPLC-UV analysis

Sequence of Tyrosine-protein kinase JAK1 (P23458 whole entry): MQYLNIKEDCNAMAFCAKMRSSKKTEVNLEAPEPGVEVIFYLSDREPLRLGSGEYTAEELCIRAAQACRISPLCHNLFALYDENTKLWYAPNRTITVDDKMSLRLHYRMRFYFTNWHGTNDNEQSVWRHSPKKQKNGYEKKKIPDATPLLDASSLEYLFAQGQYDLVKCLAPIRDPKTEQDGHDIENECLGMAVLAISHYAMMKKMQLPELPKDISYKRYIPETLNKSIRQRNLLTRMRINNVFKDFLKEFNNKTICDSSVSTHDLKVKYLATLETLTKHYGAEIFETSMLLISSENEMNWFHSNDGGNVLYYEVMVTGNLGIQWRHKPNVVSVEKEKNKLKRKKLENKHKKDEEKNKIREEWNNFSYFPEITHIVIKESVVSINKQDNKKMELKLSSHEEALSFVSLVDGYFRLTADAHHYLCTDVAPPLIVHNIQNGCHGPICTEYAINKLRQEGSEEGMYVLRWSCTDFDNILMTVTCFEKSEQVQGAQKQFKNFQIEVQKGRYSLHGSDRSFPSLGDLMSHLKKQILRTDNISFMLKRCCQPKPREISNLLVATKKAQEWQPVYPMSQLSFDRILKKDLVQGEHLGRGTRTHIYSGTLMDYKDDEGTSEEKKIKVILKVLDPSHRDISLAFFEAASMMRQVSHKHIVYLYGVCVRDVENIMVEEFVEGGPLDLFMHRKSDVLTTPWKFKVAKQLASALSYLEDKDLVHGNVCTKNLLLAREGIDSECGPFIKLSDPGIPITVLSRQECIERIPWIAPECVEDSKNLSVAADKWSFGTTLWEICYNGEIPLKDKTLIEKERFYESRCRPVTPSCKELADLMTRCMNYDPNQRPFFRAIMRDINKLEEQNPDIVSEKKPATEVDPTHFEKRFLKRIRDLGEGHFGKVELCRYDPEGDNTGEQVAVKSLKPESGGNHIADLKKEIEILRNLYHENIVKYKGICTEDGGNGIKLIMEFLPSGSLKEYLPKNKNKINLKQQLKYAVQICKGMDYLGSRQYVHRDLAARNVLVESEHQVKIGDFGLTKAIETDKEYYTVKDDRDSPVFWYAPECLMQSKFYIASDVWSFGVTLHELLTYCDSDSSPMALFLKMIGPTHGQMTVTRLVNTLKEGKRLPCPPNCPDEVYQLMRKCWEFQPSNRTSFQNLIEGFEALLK
Sequence of Aurora kinase B (Q96GD4 whole entry): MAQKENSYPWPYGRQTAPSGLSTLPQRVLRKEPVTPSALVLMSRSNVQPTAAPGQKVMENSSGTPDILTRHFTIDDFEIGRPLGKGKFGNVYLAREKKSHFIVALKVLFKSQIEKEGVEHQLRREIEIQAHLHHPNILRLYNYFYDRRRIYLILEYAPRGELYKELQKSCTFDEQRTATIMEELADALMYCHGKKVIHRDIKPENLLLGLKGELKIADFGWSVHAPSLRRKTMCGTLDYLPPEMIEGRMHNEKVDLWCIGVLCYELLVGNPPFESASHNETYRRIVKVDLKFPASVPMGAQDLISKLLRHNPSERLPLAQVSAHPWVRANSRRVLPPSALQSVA

**Q.** Which IC50 [1] does the source give for COc1cc(-c2ccc(O)cc2)cc2cnc(Nc3cnn(C)c3)nc12 here?
**A.** 0.501 nM

**Q.** What about the solubility kinetic at 1 h (physchem [2]) of the same molecule?
**A.** 11 µM (≈ 3.82 µg/mL)

**Q.** Which IC50 (Aurora kinase B) does the source give for CCc1cc(O)c(F)cc1-c1cc(NCCNC)c2nc(N)ncc2c1 here?
**A.** 12600 nM

**Q.** What about the Papp at 3 h (in vitro) of the same molecule?
**A.** 1.2 ×10⁻⁶ cm/s

**Q.** For CC(=O)N1CCC(Nc2cccc3cnc(Nc4cnn(C)c4)nc23)CC1, which IC50 [1] is on record?
**A.** 126 nM

**Q.** What about the solubility kinetic at 1 h (physchem [2]) of the same molecule?
**A.** 404 µM (≈ 148 µg/mL)

**Q.** With Cn1cc(Nc2ncc3cccc(OC4CCNCC4)c3n2)cn1 as the molecule, how does the IC50 [1] read?
**A.** 79.4 nM

**Q.** What about the solubility kinetic at 1 h (physchem [2]) of the same molecule?
**A.** 523 µM (≈ 170 µg/mL)

**Q.** For CC(=O)N1CCC(Oc2cccc3cnc(Nc4cnn(C)c4)nc23)CC1, which IC50 [3] is on record?
**A.** 316 nM

**Q.** And the IC50 [1]?
**A.** 251 nM

**Q.** What about the solubility kinetic at 1 h (physchem [2]) of the same molecule?
**A.** 557 µM (≈ 204 µg/mL)

**Q.** What does the source list for COc1cccc2cnc(Nc3cnn(C)c3)nc12?
**A.** IC50 [3]: 631 nM; IC50 [1]: 631 nM; solubility kinetic at 1 h (physchem [2]): 539 µM (≈ 138 µg/mL)

**Q.** For CCc1cc(O)c(F)cc1-c1cc(NCCO)c2nc(N)ncc2c1, which solubility at 4 h (physchem [4]) is on record?
**A.** 44 µg/mL (≈ 129 µM)

**Q.** And the Papp at 3 h (in vitro)?
**A.** 12 ×10⁻⁶ cm/s
